Among the data in publication PMC2799658, “A Multidimensional Strategy to Detect Polypharmacological Targets in the Absence of Structural and Sequence Homology” (PLoS Computational Biology, 2010) are IC50 values, retold here.

Test [1] addresses T1, T. brucei UDP-galactose 4′ epimerase (TbGalE) (Trypanosoma brucei, UniProt Q8T8E9).
T1 construct: gene galE; isolated protein; construct and host not described in main text (assay details in Text S1); 1GY8 is the docked crystal structure
T1 sequence (Q8T8E9 1-395): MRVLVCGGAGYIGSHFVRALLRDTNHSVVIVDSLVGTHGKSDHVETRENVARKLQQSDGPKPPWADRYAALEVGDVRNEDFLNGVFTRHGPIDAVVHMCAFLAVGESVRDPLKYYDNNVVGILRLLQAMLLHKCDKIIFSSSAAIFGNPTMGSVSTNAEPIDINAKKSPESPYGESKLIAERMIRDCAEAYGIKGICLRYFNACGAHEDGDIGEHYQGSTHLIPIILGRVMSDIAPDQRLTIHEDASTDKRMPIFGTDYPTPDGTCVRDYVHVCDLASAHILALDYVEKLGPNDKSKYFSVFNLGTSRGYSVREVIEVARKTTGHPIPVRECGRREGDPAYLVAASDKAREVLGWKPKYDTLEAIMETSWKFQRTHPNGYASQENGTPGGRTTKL
Description: enzyme inhibition assay (details in Text S1). It counts as biochemical.

Test [2] has as its target T2, H. sapiens mitochondrial 2-enoyl thioester reductase (HsETR1) (Homo sapiens, UniProt Q9BV79).
T2 construct: gene MECR; isolated protein; construct and host not described in main text (assay details in Text S1); 1ZSY is the docked crystal structure
T2 sequence (Q9BV79 54-373): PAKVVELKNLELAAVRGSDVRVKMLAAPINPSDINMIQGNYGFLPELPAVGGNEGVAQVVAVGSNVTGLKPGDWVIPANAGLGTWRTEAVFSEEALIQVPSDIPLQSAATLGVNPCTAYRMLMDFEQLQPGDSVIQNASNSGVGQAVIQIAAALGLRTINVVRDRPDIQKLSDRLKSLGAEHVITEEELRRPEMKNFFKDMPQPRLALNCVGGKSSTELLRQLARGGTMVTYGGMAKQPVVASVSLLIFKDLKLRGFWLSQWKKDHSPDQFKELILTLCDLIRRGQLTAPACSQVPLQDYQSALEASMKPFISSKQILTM
Description: enzyme inhibition assay (details in Text S1). It counts as biochemical.

`O=S(=O)(O)c1cc(O)c2c(O)c(N=Nc3cccc4ccccc34)c(S(=O)(=O)O)cc2c1` [compound 1, 4,5-dihydroxy-3-(1-naphthyldiazenyl)-2,7-naphthalenedisulfonic acid]: the IC50 was 0.7 ± 0.2 µM in test [1] and approximately 33.5 µM in test [2].
